{
  "source": "patent US8349583B2",
  "about": "“Distinguishing cells in a sample by inactivating extracellular enzyme before releasing intracellular enzyme” (priority 2005, dated 2013)",
  "format_in_all_cases": "biochemical",
  "key": {"[1]": {"test": "AK activity after transient pH drop or acidic incubation at pH 4", "settings": "for AK activity relative to control: listed as AK alone", "protocol": "(§1) Experimental work used adenylate kinase-generated ATP to drive a luciferin/luciferase activity, giving results in RLUs as a quantitative measure of initial ATP levels. All AK assays were performed at pH 7.5, and 37° C. Results of the assay were read at ambient temperature.\nIn further experiments, three treatment conditions were tested: (i) a control, run at pH 7.5 with no pH change; (ii) a transient pH drop before the assay, where pH was reduced to pH 4 and then returned to pH 7.5; and (iii) an acidic incubation, where pH was reduced to pH 4 for 15 minutes. AK activity was then assessed. In parallel tests, the effect of these pH conditions on the viability of E. coli and E. faecalis was assessed."}, "[2]": {"test": "Effect of incubation pH on purified AK activity (luciferin/luciferase)", "protocol": "as §1\nTo assess the effect of pH on AK activity, purified enzyme was incubated for 1 hour at various pH, with pH 7.5 being the control (normal assay conditions). AK activity was measured by using the bioluminescent luciferin/luciferase to detect AK-generated ATP."}, "[3]": {"test_system": "bacterial adenylate kinase", "test": "AK reduction by different proteases over time for different organisms", "settings": "37° C., 10 to 120 minutes; trypsin 1000, papain 10, proteinase K 2.5, chymotrypsin 1 U/ml", "protocol": "• 1. Bacteria were scraped from plates and inoculated in approximately 20 ml of broth only. These were incubated overnight at 37° C. • 2. 10× stocks of the enzymes were prepared in broth only: • a. 10 mg of 16,000 U/mg Trypsin added to 16 ml of broth to give 10,000 U/ml (10×) stock. • b. 25 mg of 4 U/mg Papain added to 1 ml of broth to give 100 U/ml (10×) stock. • c. 10 mg of 7.5 U/mg proteinase K added to 3 ml of broth to give a 25 U/ml (10×) stock. • d. 10.5 ul of 239 U/ml chymotrypsin added to 239.5 ul of broth to give a 10 U/ml stock. • 3. The inoculums were then centrifuged at approximately 14030 RCF for one hour. • 4. The supernatant was then taken, tested for adenylate kinase activity (described below), and diluted with broth only if needed to give about 10^5 cpm/ml. • 5. The supernatant was then assayed for adenylate kinase activity at time point zero in triplicate and averaged. • 6. 1.5 ml solutions of the supernatants were prepared with the correct concentration of enzyme, or broth for control. These were incubated at 37° C. • 7. Samples were then taken and assayed in triplicate for adenylate kinase activity at 10, 30, 60 and 120 minutes. • 8. The triplicates were averaged, and normalised by dividing by the time point zero average. Adenylate Kinase Assay (AK Only No Cells) • 1. […] added to a cuvette. • 2. […] RLU read immediately. […]"}},
  "note": "Several values for one entry are separate records, joined by “and”; a condition that tells them apart may be missing. Equal entries are not always repeated. Marks after values point to notes of the source that are not given here.",
  "data": [
    {"substance": "adenylate kinase [AK]", "values": [
      {"measurement": "AK activity relative to control", "setting": "[1]; acidic incubation: pH 4 for 15 minutes", "value": "13% and 8%"},
      {"measurement": "reduction in AK activity", "setting": "[1]; incubation at pH 4", "value": "~10", "unit": "fold"},
      {"measurement": "AK activity relative to control", "setting": "[1]; transient pH drop: reduced to pH 4 and returned to pH 7.5", "value": "91% and 89%"},
      {"measurement": "AK activity, RLU", "setting": "[2]; incubated 1 hour at pH 3", "value": "15.7 RLU (10^3)"},
      {"measurement": "AK activity, RLU", "setting": "[2]; incubated 1 hour at pH 4", "value": "11.1 RLU (10^3)"},
      {"measurement": "AK activity, RLU", "setting": "[2]; incubated 1 hour at pH 5", "value": "299.0 RLU (10^3)"},
      {"measurement": "AK activity, RLU", "setting": "[2]; incubated 1 hour at pH 6", "value": "333.5 RLU (10^3)"},
      {"measurement": "AK activity, RLU", "setting": "[2]; incubated 1 hour at pH 7.5 (control, normal assay conditions)", "value": "288.2 RLU (10^3)"},
      {"measurement": "AK activity, RLU", "setting": "[2]; incubated 1 hour at pH 9", "value": "262.4 RLU (10^3)"},
      {"measurement": "AK activity, RLU", "setting": "[2]; incubated 1 hour at pH 10", "value": "214.5 RLU (10^3)"},
      {"measurement": "AK activity, RLU", "setting": "[2]; incubated 1 hour at pH 11", "value": "201.2 RLU (10^3)"},
      {"measurement": "AK activity, RLU", "setting": "[2]; incubated 1 hour at pH 12", "value": "88.6 RLU (10^3)"}
    ]},
    {"substance": "chymotrypsin", "values": [
      {"measurement": "degradation of AK extracted from different organisms", "setting": "[3]", "value": "degraded the AK in a similar manner to trypsin"}
    ]}
  ]
}
